Test results taken from patent US5569658A, “Tricyclic derivatives” (Zeneca Limited, priority 1993, dated 1996).

What was measured:
[1] = biological target: T1, receptor tyrosine kinase (Homo sapiens, UniProt P00533); assay: in vitro assay: inhibition of the enzyme receptor tyrosine kinase (Test (a)); format: biochemical; details: partially purified enzyme from A-431 cells; EGF; peptide substrate, [γ-32P]ATP; 25° C., 10 minutes
T1 construct: Receptor tyrosine kinase was obtained in partially purified form from A-431 cells; endogenous in cells; host or cells: A-431 cells (human vulval carcinoma); partially purified, Triton X-100 solubilised membrane fraction
Description: (a) An in vitro assay which determines the ability of a test compound to inhibit the enzyme receptor tyrosine kinase. Receptor tyrosine kinase was obtained in partially purified form from A-431 cells (derived from human vulval carcinoma) by procedures related to those described by Carpenter et al., J. Biol. Chem., 1979, 254, 4884, Cohen et al., J. Biol. Chem., 1982, 257, 1523 and by Braun et al., J. Biol. Chem., 1984, 259, 2051.
A-431 cells were grown to confluence using Dulbecco's modified Eagle's medium (DMEM) containing 5% fetal calf serum (FCS). The obtained cells were homogenised in a hypotonic borate/EDTA buffer at pH 10.1. The homogenate was centrifuged at 400 g for 10 minutes at 0°-4° C. The supernatant was centrifuged at 25,000 g for 30 minutes at 0°-4° C. […]
The test compound/EGF mixture solution (5 μl) was added to the test enzyme solution (10 μl) and the mixture was incubated at 0°-4° C. for 30 minutes. […] Radioactivity present in the filter paper was measured using a liquid scintillation counter (Sequence A). […]
Receptor tyrosine kinase inhibition was calculated as follows: [formula]
The extent of inhibition was then determined at a range of concentrations of test compound to give an IC50 value.

[2] = system: human naso-pharyngeal cancer cell line KB; assay: in vitro assay: inhibition of growth of the human naso-pharyngeal cancer cell line KB (Test (b)); format: cell-based; details: 72 h, EGF (10 ng/ml), 3 days, MTT
Description: (b) An in vitro assay which determines the ability of a test compound to inhibit the growth of the human naso-pharyngeal cancer cell line KB.
KB cells were seeded into wells at a density of 1×10^4 -1.5×10^4 cells per well and grown for 24 hours in DMEM supplemented with 5% FCS (charcoal-stripped). Cell growth was determined after incubation for 3 days by the extent of metabolism of MTT tetrazolium dye to furnish a bluish color. Cell growth was then determined in the presence of EGF (10 ng/ml) or in the presence of EGF (10 ng/ml) and a test compound at a range of concentrations. An IC50 value could then be calculated.

[3] = system: liver hepatocyte; assay: in vivo assay: inhibition of TGFα-stimulated liver hepatocyte growth in rats (Test (c)); design: species or system rat; details: TGFα 400 μg/kg subcutaneously; for ED50: Rattus norvegicus, Hepatocyte, male rats, usually oral, approximate ED50, read-out: ED50 in Test (c), inhibition of liver hepatocyte proliferation (BrdU uptake)
Description: (c) An in vivo assay in a group of male rats which determines the ability of a test compound (usually administered orally as a ball-milled suspension in 0.5% polysorbate) to inhibit the stimulation of liver hepatocyte growth caused by the administration of the growth factor TGFα (400 μg/kg subcutaneously, usually dosed twice, 3 and 7 hours respectively after the administration of the test compound).
In a control group of rats, the administration of TGFα causes on average a 5-fold stimulation of liver hepatocyte growth.
Cell-growth in the control and test animals is determined as follows:
On the morning of the day after the dosing of the test compound (or 0.5% polysorbate in the control group), the animals are dosed with bromodeoxyuridine (BrdU; 100 mg/kg intraperitoneally). The animals are killed four hours later and the livers are excised. […] Further tests were carried out using a range of doses of the test compounds to allow the calculation of an approximate ED50 value for the inhibition of liver hepatocyte proliferation as determined by inhibition of the uptake of BrdU.

[4] = system: another carcinoma which does not express EGF receptor tyrosine kinase; details: Toi et al., 1990; cited from earlier work
[5] = system: human mammary carcinoma which expresses epidermal growth factor (EGF) receptor tyrosine kinase; details: athymic nude mice; Toi et al., 1990; cited from earlier work

T1 sequence (P00533 25-1210): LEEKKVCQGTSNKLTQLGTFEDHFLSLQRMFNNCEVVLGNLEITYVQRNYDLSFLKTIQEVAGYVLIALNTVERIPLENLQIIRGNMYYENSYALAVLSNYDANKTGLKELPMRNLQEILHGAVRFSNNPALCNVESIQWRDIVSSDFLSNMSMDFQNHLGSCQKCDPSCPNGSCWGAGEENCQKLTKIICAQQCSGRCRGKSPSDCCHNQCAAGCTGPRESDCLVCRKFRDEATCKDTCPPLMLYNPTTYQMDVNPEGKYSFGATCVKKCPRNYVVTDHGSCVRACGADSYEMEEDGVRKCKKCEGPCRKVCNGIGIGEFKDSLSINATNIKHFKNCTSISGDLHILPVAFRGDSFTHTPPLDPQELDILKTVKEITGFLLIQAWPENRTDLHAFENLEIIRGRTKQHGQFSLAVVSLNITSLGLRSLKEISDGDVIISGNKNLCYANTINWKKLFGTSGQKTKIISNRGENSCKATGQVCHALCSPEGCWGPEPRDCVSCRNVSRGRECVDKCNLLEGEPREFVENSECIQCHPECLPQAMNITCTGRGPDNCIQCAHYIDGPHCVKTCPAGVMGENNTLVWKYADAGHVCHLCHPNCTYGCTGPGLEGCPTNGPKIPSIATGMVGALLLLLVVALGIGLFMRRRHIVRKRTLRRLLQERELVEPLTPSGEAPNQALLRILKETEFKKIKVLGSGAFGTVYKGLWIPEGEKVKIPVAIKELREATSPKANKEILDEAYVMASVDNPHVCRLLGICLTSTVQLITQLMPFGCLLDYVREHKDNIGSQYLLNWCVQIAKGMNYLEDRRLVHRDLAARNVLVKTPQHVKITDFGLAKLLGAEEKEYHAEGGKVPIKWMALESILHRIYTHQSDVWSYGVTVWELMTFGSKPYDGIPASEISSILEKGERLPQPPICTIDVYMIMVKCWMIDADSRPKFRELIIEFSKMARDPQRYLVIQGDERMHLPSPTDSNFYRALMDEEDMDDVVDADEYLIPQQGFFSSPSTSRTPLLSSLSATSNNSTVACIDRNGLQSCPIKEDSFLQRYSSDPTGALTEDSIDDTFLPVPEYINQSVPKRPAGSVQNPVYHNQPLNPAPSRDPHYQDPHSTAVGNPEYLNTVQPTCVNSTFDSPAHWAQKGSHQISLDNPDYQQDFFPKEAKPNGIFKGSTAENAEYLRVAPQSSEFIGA

Molecule	IC50 [1]	IC50 [2]	ED50 [3]	effect on tumour growth, carcinoma not expressing EGF receptor tyrosine kinase [4]	effect on tumour growth, carcinoma expressing EGF receptor tyrosine kinase [5]	stimulation of liver hepatocyte growth ([3]; control group of rats, on average)
Cc1cccc(Nc2ncnc3cc4c(cc23)[nH]c(=O)n4C)c1 [3-methyl-8-(3'-methylanilino)-1,2-dihydro-3H-imidazo[4,5-g]quinazolin-2-one]	16 nM	1190 nM	< 12.5 mg/kg	–	–	–
Cc1cccc(Nc2ncnc3cc4c(cc23)ncn4C)c1 [3-methyl-8-(3'-methylanilino)-3H-imidazo[4,5-g]-quinazoline]	35 nM	970 nM	< 5 mg/kg	–	–	–
O=CN/C=C/c1cc(O)ccc1O [erbstatin]	–	–	–	without effect	specifically attenuates the growth	–
TGFα: the growth factor TGFα	–	–	–	–	–	~5 -fold
